Laboratory results: PMC10218862 (2023)

Test system: Tel22 (DNA, G4) AGGGTTAGGGTTAGGGTTAGGG
Assay: CD melting, SVD global fit
Settings: 150 mM KCl; 50 mM phosphate, 0.3 mM EDTA, pH 7; 60 μM ligand, 30 μM DNA; not irradiated; 3–4

Q: With `C[n+]1ccc(-c2c3nc(c(-c4cc[n+](C)cc4)c4ccc([nH]4)c(-c4cc[n+](C)cc4)c4nc(c(-c5cc[n+](C)cc5)c5ccc2[nH]5)C=C4)C=C3)cc1` as the compound, how does the Tm read?
A: The Tm was ~ 3 degrees.
